Measurements: patent US11339153B2, “Compounds useful in modulating the farnesoid X receptor and methods of making and using the same” (Inorbit Therapeutics AB, priority 2018, dated 2022)

How the values were obtained:
[1] = target: T1, Human FXR receptor (NR1H4) (Homo sapiens, UniProt Q96RI1); assay: Human Farnesoid X Receptor (NR1H4, FXR) Reporter Assay (Indigo Bioscience kit, luciferase); assay type: cell-based; conditions: for EC50: Human FXR (NR1H4) reporter assay, 22-24 h incubation; for Efficacy (%): normalized to GW4064 set as 100%
T1 sequence (Q96RI1 1-486): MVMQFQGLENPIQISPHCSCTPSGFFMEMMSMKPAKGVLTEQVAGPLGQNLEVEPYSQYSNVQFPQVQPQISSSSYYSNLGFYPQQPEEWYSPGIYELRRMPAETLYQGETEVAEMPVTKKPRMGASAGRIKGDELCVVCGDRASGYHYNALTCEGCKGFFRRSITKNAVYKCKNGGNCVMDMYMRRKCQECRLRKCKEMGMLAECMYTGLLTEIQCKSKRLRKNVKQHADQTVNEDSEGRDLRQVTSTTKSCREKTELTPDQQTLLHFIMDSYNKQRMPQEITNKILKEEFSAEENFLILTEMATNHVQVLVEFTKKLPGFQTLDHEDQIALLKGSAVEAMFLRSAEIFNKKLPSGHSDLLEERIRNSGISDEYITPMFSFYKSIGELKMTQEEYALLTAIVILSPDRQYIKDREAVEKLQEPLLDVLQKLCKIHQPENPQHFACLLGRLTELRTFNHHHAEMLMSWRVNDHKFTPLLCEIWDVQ
Source text: Human Farnesoid X Receptor (NR1H4, FXR) Reporter Assay
Determination of a ligand mediated Ga14 promoter driven transactivation to quantify ligand binding mediated activation of FXR. A FXR Reporter Assay kit was purchased from Indigo Bioscience (#IB00601-32) to determine the potency and efficacy of compounds that can induce FXR activation. The nuclear receptor assay system utilizes non-human mammalian cells engineered to provide constitutive high level expression of Human FXR receptor (NR1H4), a ligand-dependent transcription factor. The reporter cells include luciferase reporter gene functionality linked to an FXR-response promoter. Quantifying changes in luciferase expression in the treated reporter cells provides a sensitive surrogate measure of the changes in FXR activity.
The reporter cells incorporate the cDNA encoding beetle luciferase, a protein that catalyses the mono-oxidation of D-luciferin in a Mg^2+ dependent reaction that consumes O2 and ATP as co-substrates, yielding the products Oxylucifern, AMP, PPi, CO2 and photon (light) emission. Luminescence intensity of the reaction is quantified using a luminometer, and is reported in terms of Relative Light Units (RLU's).
The assay was performed according to the manufacturer's instructions. In brief, the test compounds were weighed and dissolved in phosphate buffer solution as a 10 mM stock and diluted to the appropriate concentration using Compound Screening Medium (CSM). The frozen reporter cells were thawed and suspended in Cell Recovery Medium at 37° C. The compounds were then immediately added to the cell plate and the plate was placed into a 37° C., humidified CO2 incubator for 22-24 h. After incubation, the media was carefully removed, Luciferase detection solution was added and the plate read in a Luminometer. The data was calculated as per kit instructions, with increases in luminescence being directly proportional to increases in compound agonist activity.

[2] = Metabolism in human microsomes; assay type: in vitro ADME; conditions: 37° C.; for % remaining @ 45 mins of incubation with UDPGA: co-factor UDPGA only; for % remaining @ 45 mins of incubation with UDPGA and NADPH: co-factors UDPGA and NADPH
Method: Metabolism in Human Microsomes
Microsomal mixes (247.5 μL) of human microsomes (1250 μL, 4 mg/ml), potassium phosphate buffer (1250 μL), alamethecin (12.5 μL, 5 mg/ml) and cofactors Nicotinamide Adenine Dinucleotide Phosphate NADPH (1250 μL, 4 mM)/uridine 5′-diphospho-glucuronic acid UDPGA (1250 μL, 4 mM) or UDPGA only were loaded onto a shaker for 10 minutes. The test compound (2.5 μL, 100 μM) was then separately added to both microsomal mixes (i.e., one mix with NADPH and one mix without NADPH), incubated at 37° C. and sampled at predetermined time points. Analysis was performed using a AB SCIEX QTRAP 4500 LC-MS/MS, a Kinetex C18, 50*4.6 mm, 5 μm column and eluting with 10 mM Ammonium Acetate/Methanol.
Table 2 summarizes the % of compound remaining after 45 minutes of incubation with human microsomes either in the presence of co-factors UDPGA and NADPH or UDPGA only.

[3] = Metabolic identification in hepatocytes (human); assay type: in vitro ADME
Method: (§1) Metabolic Identification in Hepatocytes.
(§2) A 10 mM stock of test compound from Example 4 (sodium 2-(3-((5-cyclopropyl-3-(2-(trifluoromethoxy)phenyl)isoxazol-4-yl)methoxy)-8-azabicyclo[3.2.1]octan-8-yl)-4-fluorobenzo[d]thiazole-6-sulfinate) was prepared in DMSO. 20 μM of final working stock was then prepared by diluting 4 μL of 10 mM stock in 1996 μL of Krebs-Hensleit buffer. 200 μL of hepatocyte cell suspension (2×10^6 cells/mL) was added to TPP 48 well plate and preincubated for 30 min@37° C. in incubator. 200 μL of 20 μM working stock of test compound was added to the cell suspension and incubated in an incubator on vibramax at a shaking speed of 500 rpm. For the 0 min sample, 25 μL of hepatocyte suspension was precipitated with 200 μL of acetonitrile and 25 μL of 20 μM test compound was added. The reaction was stopped at 15, 30, 60, 90, 120 min by precipitating 50 μL of incubation mixture with 200 μL of acetonitrile. The samples were vortexed for 5 min at 1200 rpm and centrifuged at 4000 rpm for 10 min. The supernatant was separated, diluted 2 fold with water and analysed using a HPLC (Shimadzu SIL HTS) and mass spectrometer (5500 Qtrap). Acetonitrile and 0.1% formic acid in Milli-q-water were used as the mobile phase, using a column of either Waters Xbridge C18, 250×3.0 mm, 5.0μ particle size or Phenomnex kinetex 5μ EVO C18 100 A, 50×4.6 mm 5.0μ particle size.
Table 3 summarizes the major metabolites observed when the compound of Example 4 of the invention was incubated in human, dog or mouse hepatocytes.

[4] = Metabolic identification in hepatocytes (dog); assay type: in vitro ADME
Method: as §1
as §2, with “size. […]” for “size.”

[5] = Metabolic identification in hepatocytes (mouse); assay type: in vitro ADME
Method: as §1
as §2, with “size. […]” for “size.”

| SMILES | EC50 [1] [µM] | Efficacy (%) [1] [%] | % remaining @ 45 mins of incubation with UDPGA [2] [%] | % remaining @ 45 mins of incubation with UDPGA and NADPH [2] [%] | Acyl-Glucuronide [3] | Observed Major Metabolites [3] | major metabolites formed (MS/MS spectra, FIG. 1) ([3]; incubation for 120 mins) | Acyl-Glucuronide [4] | Observed Major Metabolites [4] | Acyl-Glucuronide [5] | Observed Major Metabolites [5] |
| --- | --- | --- | --- | --- | --- | --- | --- | --- | --- | --- | --- |
| O=S(O)c1ccc(C2CC2c2ccc(OCc3c(-c4c(Cl)cccc4Cl)noc3C3CC3)cc2Cl)cc1 (stereo not drawn) [Example 8, Sodium 4-(2-(2-chloro-4-((5-cyclopropyl-3-(2,6-dichlorophenyl)isoxazol-4-yl)methoxy)phenyl)cyclopropyl)benzenesulfinate] | 0.5 to 5 | 127 |  |  |  |  |  |  |  |  |  |
| O=S([O-])c1cccc(N2CC(O)(c3ccc(OCc4c(-c5c(Cl)cccc5Cl)noc4C4CC4)cc3Cl)C2)c1.[Na+] [Example 6, Sodium 3-(3-(2-chloro-4-((5-cyclopropyl-3-(2,6-dichlorophenyl)isoxazol-4-yl)methoxy)phenyl)-3-hydroxyazetidin-1-yl)benzenesulfinate] | > 5 | 96 | 92 | 26 |  |  |  |  |  |  |  |
| O=S([O-])c1cc(F)c2nc(N3[C@@H]4CC[C@H]3C[C@@H](OCc3c(-c5ccccc5OC(F)(F)F)noc3C3CC3)C4)sc2c1.[Na+] [Example 4, Sodium 2-(3-((5-cyclopropyl-3-(2-(trifluoromethoxy)phenyl)isoxazol-4-yl)methoxy)-8-azabicyclo[3.2.1]octan-8-yl)-4-fluorobenzo[d]thiazole-6-sulfinate] | < 0.5 | 94 | 94 | 52 | No | Hydroxy, Alkenyl and Alkenyl-hydroxy | consistent with oxidative metabolism to give the corresponding hydroxy compound | No | Alkenyl-hydroxy | No | Hydroxy, Di-hydroxy and Alkenyl-hydroxy |
| O=S(O)c1ccc(C2CC(O)(c3ccc(OCc4c(-c5c(Cl)cccc5Cl)noc4C4CC4)cc3Cl)C2)cc1 (stereo not drawn) [Example 7, Sodium 4-(3-(2-chloro-4-((5-cyclopropyl-3-(2,6-dichlorophenyl)isoxazol-4-yl)methoxy)phenyl)-3-hydroxycyclobutyl)benzenesulfinic acid] | > 5 | 89 | 95 | 38 |  |  |  |  |  |  |  |
